Tests used:
[1] = molecular target: T1, human recombinant PGHS-1 (Homo sapiens, UniProt P23219); assay: Inhibition of prostaglandin biosynthesis (PGE2 by EIA), recombinant human PGHS-1 enzyme assay; format: biochemical; conditions: 60 min preincubation, 10 μM arachidonic acid
T1 construct: made in house; host or cells: baculovirus/Sf9 insect cells (microsomes)
Description: (§1) Inhibition of prostaglandin biosynthesis was evaluated in recombinant human PGHS-1 and PGHS-2 enzyme assays. Representative compounds dissolved in DMSO (3.3% v/v) were preincubated with microsomes from recombinant human PGHS-1 or PGHS-2 expressed in the baculovirus/Sf9 cell system (Gierse, J. K., Hauser, S. D., Creely, D. P., Koboldt, C., Rangwala, S., H., Isakson, P. C., and Seibert, K. Expression and selective inhibition of the constituitive and inducible forms of cyclooxygenase Biochem J. 1995, 305: 479.), together with the cofactors phenol (2 mM) and hematin (1 μM) for 60 minutes prior to the addition of 10 μM arachidonic acid. The reaction was allowed to run for 2.5 minutes at room temperature prior to quenching with HCl and neutralization with NaOH. PGE2 production in the presence and absence of the drug was determined by EIA analysis. The EIA was conducted in 96 well microtiter plates (Nunc Roskilde, Denmark) and optical density measured using a microplate reader (Vmax, Molecular Devices Corp., Menlo Park, Calif.). EIA reagents for prostaglandin determination were purchased from Perseptive Diagnostics, Cambridge, Mass. PGE2 levels were measured against standards prepared in the same milieu. The immunoassays were conducted as recommended by the manufacturer.

[2] = molecular target: T2, human recombinant PGHS-2 (Homo sapiens, UniProt P35354); assay: Inhibition of prostaglandin biosynthesis (PGE2 by EIA), recombinant human PGHS-2 enzyme assay; format: biochemical; conditions: 60 min preincubation, 10 μM arachidonic acid
T2 construct: made in house; host or cells: baculovirus/Sf9 insect cells (microsomes)
T2 sequence (P35354 18-604): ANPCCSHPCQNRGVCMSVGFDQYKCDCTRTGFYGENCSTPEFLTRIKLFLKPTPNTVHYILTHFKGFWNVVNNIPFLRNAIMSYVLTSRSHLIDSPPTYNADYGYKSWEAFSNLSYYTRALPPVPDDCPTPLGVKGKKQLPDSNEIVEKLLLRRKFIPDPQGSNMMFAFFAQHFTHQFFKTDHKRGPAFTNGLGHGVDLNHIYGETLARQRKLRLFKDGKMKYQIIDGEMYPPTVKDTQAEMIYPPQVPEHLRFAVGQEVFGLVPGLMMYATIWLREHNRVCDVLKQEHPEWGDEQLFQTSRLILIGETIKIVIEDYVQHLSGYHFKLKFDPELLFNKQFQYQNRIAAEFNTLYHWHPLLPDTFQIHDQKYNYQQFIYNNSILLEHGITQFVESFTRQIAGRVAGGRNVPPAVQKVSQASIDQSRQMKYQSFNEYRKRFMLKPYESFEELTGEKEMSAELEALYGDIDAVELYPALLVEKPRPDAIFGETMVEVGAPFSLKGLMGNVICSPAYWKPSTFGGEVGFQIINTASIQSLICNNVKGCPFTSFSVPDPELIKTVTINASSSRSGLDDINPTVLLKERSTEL
Description: as §1

[3] = system: PGHS-2; conditions: in words, from literature; cited from earlier work
[4] = system: PGHS-1; conditions: in words, from literature; cited from earlier work

T1 sequence (P23219 24-599): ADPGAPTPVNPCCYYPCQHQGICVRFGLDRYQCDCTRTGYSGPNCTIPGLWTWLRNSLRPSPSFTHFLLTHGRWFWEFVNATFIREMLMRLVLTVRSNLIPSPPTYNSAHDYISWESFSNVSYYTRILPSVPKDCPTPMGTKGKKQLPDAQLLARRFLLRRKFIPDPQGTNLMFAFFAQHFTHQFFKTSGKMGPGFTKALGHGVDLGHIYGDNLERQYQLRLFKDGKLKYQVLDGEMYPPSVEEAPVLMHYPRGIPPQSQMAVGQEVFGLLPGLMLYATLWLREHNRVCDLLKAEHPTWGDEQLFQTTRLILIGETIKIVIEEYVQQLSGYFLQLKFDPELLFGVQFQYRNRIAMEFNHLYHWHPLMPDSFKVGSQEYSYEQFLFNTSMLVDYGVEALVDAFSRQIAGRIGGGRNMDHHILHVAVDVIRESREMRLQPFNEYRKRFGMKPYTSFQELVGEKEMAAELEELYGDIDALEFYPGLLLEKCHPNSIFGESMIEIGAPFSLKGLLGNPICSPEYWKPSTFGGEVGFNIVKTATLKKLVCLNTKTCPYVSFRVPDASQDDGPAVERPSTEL

Row | IC50 [1] [nM] | IC50 [2] [nM] | SMILES | inhibition of PGHS-2 [3] | inhibition of PGHS-1 [4]
1 | 850 | 22 | Cc1ccc(Cl)c(Nc2ccccc2C=NOCC(=O)O)c1Cl [Example 1, 2-[(2,6-dichloro-3-methylphenyl)amino]benzaldehyde-O-carboxymethyl oxime] |  | 
2 |  |  | Cc1ccc(Cl)c(Nc2ccccc2C(=O)O)c1Cl [Meclofenamic acid] | inhibit both PGHS-1 and PGHS-2 | inhibit both PGHS-1 and PGHS-2
3 |  |  | CC(C)Cc1ccc(C(C)C(=O)O)cc1 (centres unmarked) [ibuprofen] | inhibit both isozymes | inhibit both isozymes
4 |  |  | COc1ccc2cc([C@H](C)C(=O)O)ccc2c1 [naproxen] | inhibit both isozymes | inhibit both isozymes
